Assay results published in paper PMC6216040, “Repurposing of an old drug: In vitro and in vivo efficacies of buparvaquone against Echinococcus multilocularis” (International Journal for Parasitology: Drugs and Drug …, 2018).

Tested on: E. multilocularis metacestodes
Assay: PGI-assay: drug-induced damage on in vitro cultured metacestodes (Pathogen Box screening cascade and EC50)
Type: cell-based, Echinococcus multilocularis
Conditions: for PGI release, % of the Tx-100 control, 5d / PGI release, % of the Tx-100 control, 12d: 10 µM, singlets; for PGI release, % of the Tx-100 control, 5d / PGI release, % of Tx-100 control, average, 5d: 5 days of incubation; for PGI release, % of the Tx-100 control, 12d / PGI release, % of Tx-100 control, average, 12d: 12 days of incubation
[1] = confirmatory screening at 10 µM in triplicates, values as % of Tx-100 control

SMILES | PGI release, % of the Tx-100 control, 5d [%] | PGI release, % of the Tx-100 control, 12d [%] | also measured
CC(C)NCC(=O)Nc1cccc(C(=O)Nc2cccc(C(F)(F)F)c2)c1 [MMV020165] | 0.28 | -0.10 | 
Cc1ccc(NC(=O)c2cc(S(=O)(=O)NC(C)(C)C)ccc2C)nc1 [MMV020289] | -0.85 | -0.97 | 
CC(C(=O)N1CCCC1)N1CCN(S(=O)(=O)c2ccc(C(C)(C)C)cc2)CC1 (centres unmarked) [MMV020291] | -0.20 | -0.67 | 
Cc1nnc(NC(=O)c2cn(-c3ccccc3)nc2-c2ccccc2C)o1 [MMV020320] | -1.15 | 2.11 | 
COc1ccccc1C(C)NCC(=O)Nc1cc(C(F)(F)F)ccc1Cl (centres unmarked) [MMV020321] | 0.0279 | 2.67 | 
CC1CCCN(C(=O)C(C)Nc2cc(Cl)ccc2N2CCOCC2)C1 (centres unmarked) [MMV020388] | -0.77 | -1.83 | 
CC(C)C(C(=O)Nc1ccc(S(=O)(=O)N(C)C)cc1)c1ccc(Cl)cc1 (centres unmarked) [MMV020391] | -0.90 | -4.50 | 
Cc1ccc(Oc2ccc(NC(=O)CNc3ccccc3N3CCCC3=O)cc2)cc1 [MMV020512] | 0.61 | 1.80 | 
COc1ccccc1CNC(=O)c1cc(C2CC2)nc2c1cnn2C(C)C [MMV020517] | -0.60 | -1.00 | 
Cc1cc2ccccc2n1CC(=O)N1CC(C(=O)N2CCCCC2)Oc2ccccc21 (centres unmarked) [MMV020520] | -0.40 | -0.48 | 
O=C(NC1CC1)c1ccc(N2CCOc3ccc(Cl)cc32)s1 [MMV020537] | 1.89 | 0.98 | 
CC(C)C(NC(=O)Cc1cccc2ccccc12)C(=O)Nc1cccc(C#N)c1 (centres unmarked) [MMV020591] | -0.00326 | 0.72 | 
Cc1noc(C)c1C(=O)N1CCCC(c2[nH]c3c(C)cccc3c2-c2ccncc2)C1 (centres unmarked) [MMV020623] | -0.37 | -4.10 | 
COc1ccc(-c2cncc3ccc(C(=O)NCCCn4ccnc4)nc23)cc1 [MMV020670] | 0.79 | -1.21 | 
COc1ccc(Cl)cc1NC(=O)CN(C)C(=O)c1cnn(-c2ccccc2)n1 [MMV020710] | -1.15 | -0.53 | 
CC(C)(C)c1cc(C(=O)Nc2cccnc2)cc(C(=O)Nc2cccnc2)c1 [MMV020982] | 1.45 | 12.41 | 
CO/C=C(/C(=O)OC)c1ccccc1Oc1cc(Oc2ccccc2C#N)ncn1 [MMV021057, Azoxystrobin] | -0.65 | -0.77 | 
Cc1cc(NCC(C)C)c2[nH]nc(-c3ccccc3)c2n1 [MMV021375] | -3.66 | 7.43 | 
Cc1cc(NCCc2ccccc2)nc(NC(=N)Nc2ccc(Cl)cc2)n1 [MMV021660] | 5.66 | 4.49 | 
CN1CCC(NCc2cccc(-c3ccc(S(=O)(=O)NCc4ccccc4)cc3)c2)CC1 [MMV022029] | 0.43 | 0.82 | 
CCN(CC)CCCN1CCN(C(=O)c2cccc(-c3noc(C(F)(F)F)n3)c2)CC1 [MMV022236] | -0.66 | -2.62 | 
O=C(Nc1ccc(N2CCNCC2)cc1)c1ccn2ncc(-c3cccc(Cl)c3)c2n1 [MMV022478] | 20.71 | 24.08 | PGI release, % of Tx-100 control, average, 5d [1]: 17.77%; PGI release, % of Tx-100 control, average, 12d [1]: 19.68%
c1ccc2c(c1)CN(CC1CC1)CC1(CCN(Cc3c[nH]c4cnccc34)CC1)O2 [MMV023183] | -0.64 | -1.24 | 
Cc1nc(-c2cccc(NCc3ccccc3)c2)[nH]c1C [MMV023227] | 0.40 | 0.67 | 
Nc1nccc2ccc(-c3ccc4nccn4c3)cc12 [MMV023233] | -0.34 | -0.36 | 
Nc1ncc(-c2cn[nH]c2)cc1-c1nc2cc(Cl)cnc2[nH]1 [MMV023370] | -2.33 | -3.72 | 
O=C(NC1CCN(c2ccnc3ccccc23)C1)c1cccc(C(F)(F)F)c1 (centres unmarked) [MMV023388] | -0.73 | -1.23 | 

SMILES | PGI release, % of the Tx-100 control, 5d [%] | PGI release, % of the Tx-100 control, 12d [%] | also measured
NS(=O)(=O)c1cccc(-c2ccc3ncc(N4CCOCC4)nc3c2)c1 [MMV023860] | -0.05 | -0.27 | 
CC(C)(C)c1cc(C(=O)N2CCN(c3nccnc3C#N)CC2)n(Cc2ccccc2)n1 [MMV023949] | -0.59 | -1.14 | 
O=C(Nc1cccc(-c2ccc(NCCCN3CCCC3)nc2)c1)c1ccccc1 [MMV023953] | -0.23 | -3.47 | 
c1cncc(NCc2ccc(-c3cc4ccncc4cc3OC3CCNCC3)s2)c1 [MMV023969] | -3.87 | -3.02 | 
COc1ccc(-c2cnc3ccc(N4CCCC4)nn23)cc1OC [MMV023985] | -0.66 | -1.01 | 
O=C(Nc1ccccc1)c1ccc(-c2cc3ccncc3cc2OC2CCNCC2)s1 [MMV024035] | 1.01 | 1.04 | 
NS(=O)(=O)c1cncc(-c2ccc3nccc(-c4cn[nH]c4)c3n2)c1 [MMV024101] | 0.37 | 1.27 | 
Cc1ccc(S(=O)(=O)n2cc(-c3ccnc(N)c3)c3cc(Br)cnc32)cc1 [MMV024114] | 3.26 | 5.70 | 
CN(C)CCNC(=O)N1CCCN(c2ncnc3cc(-c4ccccc4)sc23)CC1 [MMV024195] | 1.72 | 5.34 | 
Cc1ccc2[nH]c(C3CCCNC3)c(-c3ccncc3)c2c1 (centres unmarked) [MMV024311] | -0.16 | -1.97 | 
O=C(NC1CC1)c1ccc(N2CCC(Cc3ccccc3)CC2)nc1 [MMV024397] | 0.75 | 37.30 | PGI release, % of Tx-100 control, average, 5d [1]: 0.18%; PGI release, % of Tx-100 control, average, 12d [1]: -0.13%
O=C(Nc1cccc(Cl)c1)c1cnc(N2CCN(c3ccncc3)CC2)c(Cl)c1 [MMV024406] | 4.18 | 4.57 | 
CN(C(=O)c1cc2c(-c3cncnc3)cccc2[nH]1)c1ccccc1 [MMV024443] | -1.32 | 3.28 | 
Cc1cccc(C(=O)Nc2ccnc(N(C)C3CCN(CC(C)C)CC3)c2)c1 [MMV024829] | 0.62 | -0.07 | 
O=C(Nc1ccc(N2CCNCC2)nc1)c1oc(-c2ccccc2)nc1C(F)(F)F [MMV024937] | 14.66 | 18.16 | 
CS(=O)(=O)c1cccc(-c2cnc3[nH]cc(-c4ccc(CCC(=O)O)cc4)c3c2)c1 [MMV026020] | -2.92 | -0.12 | 
Nc1nccc2ccc(Oc3ccncc3)cc12 [MMV026313] | -0.49 | -0.99 | 
CCn1ncc2c(NC3CCOCC3)c(CNC(=O)c3ccnn3C)c(C)nc21 [MMV026356] | -0.13 | 0.36 | 
OCc1ccc(-c2cncc(Nc3cccc(Cl)c3)c2)cc1 [MMV026468] | 9.97 | 54.98 | PGI release, % of Tx-100 control, average, 5d (1 µM, triplicates): 0.57%; PGI release, % of Tx-100 control, average, 12d (1 µM, triplicates): -1.50%; activity in the screen at 10 μM (confirmed in triplicates, >20% relative PGI release) (10 μM, 5 and 12 days): active; PGI release, % of Tx-100 control, average, 5d [1]: 0.62%; PGI release, % of Tx-100 control, average, 12d [1]: 52.89%
O=C(NCCc1ccccc1)c1cc(-c2cccnc2)cnc1NCC1CC1 [MMV026490] | -0.0463 | -0.43 | 
CC(C)(C)CN1C(=O)C(c2ccccc2)(c2ccccc2)N=C1N [MMV026550] | 3.21 | 3.61 | 
OCCc1ccc(Nc2nccc(-c3nnc4ccccn34)n2)cc1 [MMV028694] | 1.98 | 1.79 | 
CC(C)(CN)c1nc(-c2ccc(Cl)c(O)c2)c(-c2ccnc(N)n2)[nH]1 [MMV030734] | -0.31 | -0.25 | 
CNC(=O)C1Cc2c([nH]c3cc(Cl)ccc23)C2(CCN(CCc3ccccc3)CC2)N1 (centres unmarked) [MMV031011] | 4.51 | 91.49 | PGI release, % of Tx-100 control, average, 5d [1]: -0.91%; PGI release, % of Tx-100 control, average, 12d [1]: -1.45%
FC(F)(F)c1cccc(-c2nc3c(NCc4ccncc4)nccc3[nH]2)c1 [MMV032967] | 0.25 | -2.81 | 
O=C1COCc2ccc(Br)cc2N1Cc1ccc(C(F)(F)F)cc1 [MMV032995] | 0.37 | 1.79 | 
c1ccc(Oc2ccc(-c3cc(N4CCOCC4)n[nH]3)cc2)cc1 [MMV045105] | -0.42 | 0.07 | 
